In patent publication US8653087B2, “Pyrido [5, 4-D] pyrimidines as cell proliferation inhibitors” (Boehringer Ingelheim International GmbH, priority 2008, dated 2014):

biological target: B-Raf (V600E)-kinase (Homo sapiens (Human), UniProt P15056, V600E); test: Kinase test B-RAF (V600E); format: biochemical; conditions: B-RAF (V600E) kinase test, 250 μM ATP
Procedure, shortened: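 Read-out is DELFIA europium TRF of phospho-MEK (Ser217/221) on biotinylated MEK1 bound to streptavidin plates, IC50 from dose-response. Reaction ran 60 min at RT with 250 μM ATP, after a 24 h RT preincubation of compound with B-Raf (V600E) kinase, 5% DMSO final.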

B-Raf (V600E)-kinase, sequence (P15056 whole entry V600E): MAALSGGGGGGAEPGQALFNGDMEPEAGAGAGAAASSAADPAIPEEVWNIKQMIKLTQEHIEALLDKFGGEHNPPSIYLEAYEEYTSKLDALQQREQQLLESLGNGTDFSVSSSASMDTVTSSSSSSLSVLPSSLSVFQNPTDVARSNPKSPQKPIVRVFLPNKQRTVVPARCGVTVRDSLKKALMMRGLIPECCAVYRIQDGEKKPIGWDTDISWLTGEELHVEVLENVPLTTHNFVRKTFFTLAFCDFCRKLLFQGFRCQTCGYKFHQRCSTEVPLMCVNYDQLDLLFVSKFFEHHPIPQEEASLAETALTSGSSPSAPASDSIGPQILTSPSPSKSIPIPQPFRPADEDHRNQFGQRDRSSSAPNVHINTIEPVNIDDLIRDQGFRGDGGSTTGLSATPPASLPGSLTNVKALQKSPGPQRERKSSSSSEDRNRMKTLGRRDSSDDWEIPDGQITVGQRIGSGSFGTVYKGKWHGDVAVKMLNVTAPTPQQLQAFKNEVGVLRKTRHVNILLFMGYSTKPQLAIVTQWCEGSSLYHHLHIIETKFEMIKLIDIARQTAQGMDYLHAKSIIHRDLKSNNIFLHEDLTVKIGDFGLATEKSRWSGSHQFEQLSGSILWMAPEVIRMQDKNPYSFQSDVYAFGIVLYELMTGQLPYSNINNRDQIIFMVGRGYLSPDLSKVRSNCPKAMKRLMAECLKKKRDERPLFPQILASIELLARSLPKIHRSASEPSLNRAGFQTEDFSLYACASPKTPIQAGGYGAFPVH

| Structure (SMILES) | IC50 |
| --- | --- |
| Cc1ccc(C(=O)Nc2cc(C(C)(C)C)on2)cc1Nc1ncnc2cnc(N3CCN4CCCC4C3)nc12 (stereo not drawn) [III-484] | 3 nM |
| Cc1ccc(C(=O)Nc2cccc(C(F)(F)F)c2)cc1Nc1ncnc2cnc(N3CCOCC3)nc12 [III-315] | < 1 nM |
| CC(C)(C)c1cc(NC(=O)c2ccc(Cl)c(Nc3ncnc4cnc(N5CCCCCC5)nc34)c2)no1 [III-68] | 8 nM |
| COc1ccc(NC(=O)c2ccc(C(F)(F)F)c(Nc3ncnc4cnc(N5CCCCC5)nc34)c2)cc1C(F)(F)F [III-48] | > 1000 nM |
| Cn1nc(C(C)(C)C)cc1NC(=O)c1cc(Cl)cc(Nc2ncnc3cnc(N4CCCC4)nc23)c1Cl [III-374] | 2000 nM |
| Cc1ccc(C(=O)Nc2cc(C(C)(C)C)on2)cc1N(C)c1ncnc2cnc(N3CC[C@H](F)C3)nc12 [III-583] | 32 nM |
| CCN1CCN(c2cc(NC(=O)c3ccc(C)c(Nc4ncnc5cnc(N6CCOCC6)nc45)c3)cc(C(F)(F)F)c2)CC1 [III-441] | 2 nM |
| COc1ncc2ncnc(Nc3cc(C(=O)Nc4cccc(C(F)(F)F)c4)ccc3C)c2n1 [III-568] | 1 nM |
| Cn1nc(C(C)(C)C)cc1NC(=O)c1cc(Cl)cc(Nc2ncnc3cnc(N4CCOCC4)nc23)c1Cl [III-375] | 2000 nM |
| COc1ccc(NC(=O)c2ccc(C)c(Nc3ncnc4cnc(N5CCN(C(C)C)CC5)nc34)c2)cc1C(F)(F)F [III-437] | 2 nM |
| Cc1ccc(C(=O)Nc2cccc(C(F)(F)F)c2)cc1Nc1ncnc2c(N)nc(N3CCN(CC4CCN(C)CC4)CC3)nc12 [I-61] | < 1 nM |
| COc1c(NC(=O)c2ccc(C)c(Nc3ncnc4cnc(N(C)CCN(C)C)nc34)c2)cc(C(C)(C)C)cc1NS(C)(=O)=O [III-199] | 23 nM |
| Cc1ccc(C(=O)Nc2ccc3c(c2)C(C)(C)C(=O)N3CCN2CCCC2)cc1Nc1ncnc2cnc(N3CCCN(C)CC3)nc12 [III-252] | 8 nM |
| Cc1ccc(C(=O)Nc2cc(C(C)(C)C)n[nH]2)cc1Nc1ncnc2cnc(N3CCOCC3)nc12 [III-515] | < 1 nM |
| CC(C)CN1CCN(c2nc(N)c3ncnc(Nc4ccc(F)c(C(=O)Nc5cc(C(C)(C)C)n[nH]5)c4)c3n2)CC1 [I-83] | 2200 nM |
| Cc1ccc(NC(=O)c2cccc(C(F)(F)F)c2)cc1Nc1ncnc2c(N)nc(N3CCN(C4CCN(C)CC4)CC3)nc12 [II-8] | 2 nM |
| Cc1ccc(C(=O)Nc2ccc(N(C)CCN(C)C)c(C(F)(F)F)c2)cc1Nc1ncnc2cnc(NCc3ccccn3)nc12 [III-135] | 4 nM |
| CC(C)(C#N)c1cccc(NC(=O)c2ccc(F)c(Nc3ncnc4cnc(NC5CCOC5)nc34)c2)c1 (stereo not drawn) [III-386] | 1 nM |
| Cc1ccc(C(=O)Nc2cc(C(C)(C)C)nn2C)cc1Nc1ncnc2cnc(NCC(C)C)nc12 [III-499] | 3 nM |
| Cc1ccc(C(=O)Nc2cccc(C(F)(F)F)c2)cc1Nc1ncnc2cnc(N3CCN(CC4CCN(C)CC4)CC3)nc12 [III-417] | < 1 nM |
| COc1ccc(NC(=O)c2ccc(F)c(Nc3ncnc4cnc(NC5CCOC5)nc34)c2)cc1C(F)(F)F (stereo not drawn) [III-390] | < 1 nM |
| COCCN(C)c1ncc2ncnc(Nc3cc(C(=O)Nc4ccc(OC)c(C(F)(F)F)c4)ccc3Cl)c2n1 [III-4] | 2 nM |
| Cc1ccc(NC(=O)c2cc(N3CCN(C)CC3)cc(C(F)(F)F)c2)cc1Nc1ncnc2cnc(N(C)C)nc12 [IV-13] | 3 nM |
| Cc1ccc(C(=O)NCc2cccc(C(F)(F)F)c2)cc1Nc1ncnc2cnc(N3CCCCC3)nc12 [III-214] | 56 nM |

| Structure (SMILES) | IC50 |
| --- | --- |
| Cc1ccc(C(=O)NC2CCCCC2)cc1Nc1ncnc2cnc(N3CCCCC3)nc12 [III-215] | > 10000 nM |
| Cc1ccc(C(=O)Nc2cccc(C(C)(C)C#N)c2)cc1Nc1ncnc2cnc(N3CC[C@@H](F)C3)nc12 [III-206] | 2 nM |
| Cn1nc(C(C)(C)C)cc1NC(=O)c1ccc(F)c(Nc2ncnc3cnc(N4CCOCC4)nc23)c1 [III-384] | 2 nM |
| CCN1CCN(c2cc(NC(=O)c3ccc(C)c(Nc4ncnc5cnc(NC6CCOC6)nc45)c3)cc(C(F)(F)F)c2)CC1 (stereo not drawn) [III-351] | < 1 nM |
| Cc1ccc(NC(=O)c2cccc(C(C)(C)C#N)c2)cc1Nc1ncnc2cnc(NC3CCN(C)CC3)nc12 [IV-28] | 1 nM |
| Cc1ccc(C(=O)Nc2cc(Br)cc(C(F)(F)F)c2)cc1Nc1ncnc2c(N)nc(N3CCN(C)CC3)nc12 [I-2] | 9 nM |
| Cc1ccc(C(=O)Nc2ccnc(C(C)(C)C)c2)cc1Nc1ncnc2cnc(NC3CCN(C)CC3)nc12 [III-595] | 1 nM |
| Cc1ccc(C(=O)Nc2cccc(C(F)(F)F)c2)cc1Nc1ncnc2cnc(NC3CCOC3)nc12 (stereo not drawn) [III-349] | < 1 nM |
| Cc1ccc(C(=O)Nc2cccc(C(C)(C)C)c2)cc1Nc1ncnc2cnc(N3CCN(CC4CCN(C)CC4)CC3)nc12 [III-416] | 1 nM |
| COc1ccc(C(F)(F)F)cc1NC(=O)c1ccc(C)c(Nc2ncnc3cnc(N4CC[C@H](F)C4)nc23)c1 [III-288] | 2 nM |
| Cc1ccc(C(=O)Nc2ccc(C#N)c(C(F)(F)F)c2)cc1Nc1ncnc2c(N)nc(N3CCN(C)CC3)nc12 [I-71] | 7 nM |
| Cc1ccc(C(=O)Nc2cc(N3CCCN(C)CC3)cc(C(F)(F)F)c2)cc1Nc1ncnc2cnc(N(C)CCF)nc12 [III-514] | 1 nM |
| Cc1ccc(C(=O)Nc2ccccc2)cc1Nc1ncnc2cnc(N3CCCCC3)nc12 [III-253] | 269 nM |
| Cc1ccc(C(=O)Nc2cc(C(C)(C)C)on2)cc1Nc1ncnc2cnc(NCCCN(C)C)nc12 [III-598] | < 1 nM |
| Cc1ccc(NC(=O)c2cccc(C(F)(F)F)c2)cc1Nc1ncnc2c(N)nc(NCc3ccccn3)nc12 [II-6] | 96 nM |
| COC[C@@H]1CCCN1c1ncc2ncnc(Nc3cc(C(=O)Nc4cc(C(C)(C)C)on4)ccc3C)c2n1 [III-362] | 3 nM |
| COc1ccc(NC(=O)c2ccc(C)c(Nc3ncnc4cnc(N5C[C@@H](C)O[C@@H](C)C5)nc34)c2)cc1C(F)(F)F [III-550] | 4 nM |
| COc1ccc(C(C)(C)C)cc1NC(=O)c1ccc(C)c(Nc2ncnc3c(N)nc(N4CCN(C)CC4)nc23)c1 [I-53] | 21 nM |
| Cc1ccc(C(=O)Nc2cc(C(C)(C)C)n[nH]2)cc1Nc1ncnc2c(N)nc(N3CCC(N4CCN(C)CC4)CC3)nc12 [I-52] | 55 nM |
| COc1ccc(C(=O)Nc2ccc(OC)c(C(F)(F)F)c2)cc1Nc1ncnc2cnc(N3CCOCC3)nc12 [III-25] | 2 nM |
| CN1CCC(CN2CCN(c3nc(N)c4ncnc(Nc5cc(C(=O)Nc6cccc(C(F)(F)F)c6)ccc5Br)c4n3)CC2)CC1 [I-29] | 15 nM |
| COc1ccc(NC(=O)c2ccc(C)c(Nc3ncnc4cnc(N5CCC[C@H]5CO)nc34)c2)cc1C(F)(F)F [III-546] | 4 nM |
| Cc1ccc(C(=O)Nc2cccc(N(C)C)c2)cc1Nc1ncnc2cnc(N3CCOCC3)nc12 [III-309] | 4 nM |
| COc1ccc(C(F)(F)F)cc1NC(=O)c1ccc(C)c(Nc2ncnc3cnc(N4CCCC4)nc23)c1 [III-268] | 120 nM |

| Structure (SMILES) | IC50 |
| --- | --- |
| Cc1cn(-c2ncc3ncnc(Nc4cc(C(=O)Nc5cc(C(C)(C)C)n[nH]5)ccc4C)c3n2)cn1 [III-605] | 6 nM |
| Cc1ccc(NC(=O)c2cccc(C(C)(C)C#N)c2)cc1Nc1ncnc2cnc(NC3CCOC3)nc12 (stereo not drawn) [IV-32] | 1 nM |
| Cc1ccc(C(=O)NCC2CCOC2)cc1Nc1ncnc2cnc(N(C)CCN(C)C)nc12 (stereo not drawn) [III-197] | > 15000 nM |
| COCCN1CCN(c2ncc3ncnc(Nc4cc(C(=O)Nc5cccc(C(F)(F)F)c5)ccc4C)c3n2)CC1 [III-423] | < 1 nM |
| COc1c(NC(=O)c2ccc(C)c(Nc3ncnc4cnc(N5CCCCC5)nc34)c2)cc(C(C)(C)C)cc1NS(C)(=O)=O [III-338] | 41 nM |
| Cc1ccc(C(=O)Nc2ccccc2)cc1Nc1ncnc2cnc(N3CCCN(C)CC3)nc12 [III-184] | 2880 nM |
| COc1ccc(C(F)(F)F)cc1NC(=O)c1ccc(C)c(Nc2ncnc3cnc(N4CCCCC4)nc23)c1 [III-262] | 9 nM |
| CN(C)C1CCN(c2ncc3ncnc(Nc4cc(Cl)cc(C(=O)Nc5cc(C(C)(C)C)nn5C)c4)c3n2)C1 (stereo not drawn) [III-379] | 6 nM |
| CN(C)CCN(C)c1ncc2ncnc(Nc3cc(C(=O)Nc4cc(C(C)(C)C)on4)ccc3C(F)(F)F)c2n1 [III-56] | 1990 nM |
| COc1ncc2ncnc(Nc3cc(C(=O)Nc4ccc(OC)c(C(F)(F)F)c4)ccc3C)c2n1 [III-569] | 2 nM |
| Cc1ccc(C(=O)Nc2ccc(C#N)c(C(F)(F)F)c2)cc1Nc1ncnc2cnc(N3CCCCC3)nc12 [III-333] | 56 nM |
| Cc1ccc(C(=O)Nc2cc(C(C)(C)C)nn2C)cc1Nc1ncnc2c(N)nc(N3CCN(CC(C)C)CC3)nc12 [I-84] | 11 nM |
| Cc1ccc(C(=O)Nc2cc(OCCN(C)C)cc(C(F)(F)F)c2)cc1Nc1ncnc2cnc(NCC(C)C)nc12 [III-153] | < 1 nM |
| CN1CCN(c2ncc3ncnc(Nc4cc(C(=O)Nc5cc(C(C)(C)C)on5)ccc4C(F)(F)F)c3n2)CC1 [III-60] | 230 nM |
| Cc1ccc(NC(=O)c2cccc(C(C)(C)C#N)c2)cc1Nc1ncnc2cnc(N3CC[C@H](F)C3)nc12 [IV-35] | 2 nM |
| COc1ccc(C(C)(C)C)cc1NC(=O)c1ccc(C)c(Nc2ncnc3cnc(N4CCCN(C)CC4)nc23)c1 [III-225] | 2 nM |
| Cc1ccc(C(=O)Nc2cc(CN3CCCC3)cc(C(F)(F)F)c2)cc1Nc1ncnc2cnc(NC3CC3)nc12 [III-111] | < 1 nM |
| CCN1CCN(c2ncc3ncnc(Nc4cc(C(=O)Nc5ccc(OC)c(C(F)(F)F)c5)ccc4F)c3n2)CC1 [III-405] | 5 nM |
| COc1ccc(C(F)(F)F)cc1NC(=O)c1ccc(C)c(Nc2ncnc3cnc(NC4CCOC4)nc23)c1 (stereo not drawn) [III-347] | 1 nM |
| Cc1ccc(NC(=O)c2cccc(C(C)(C)C#N)c2)cc1Nc1ncnc2cnc(N(C)C3CCN(C)CC3)nc12 [IV-29] | 1 nM |
| CCC(C)S(=O)(=O)Nc1ccc(C)c(Nc2ncnc3cnc(N4CCN(C)CC4)nc23)c1 (stereo not drawn) [IV-56] | 10000 nM |
| CN1CCCN(c2ncc3ncnc(Nc4cc(C(=O)Nc5cc(C(C)(C)C)on5)ccc4F)c3n2)CC1 [III-86] | < 1 nM |
| COCCN(C)c1ncc2ncnc(Nc3cc(C(=O)Nc4ccc(OC)c(C(F)(F)F)c4)ccc3C)c2n1 [III-473] | 1 nM |
| Cc1ccc(C(=O)Nc2ccc(C(F)(F)F)cc2)cc1Nc1ncnc2c(N)nc(N3CCN(C)CC3)nc12 [I-5] | 5 nM |
